Target: T1, Recombinant human BRD4 containing dual bromodomains (BRD4-BD12 (1-477)) (Homo sapiens, UniProt O60885)
T1 construct: Recombinant human BRD4 containing dual bromodomains (BRD4-BD12 (1-477)); made in house; host or cells: E. coli BL21-CodonPlus (DE3), modified pET vector
Experiment: BRD4 Alphascreen binding assay
Summary of the method: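 His-tagged human BRD4 tandem bromodomains (1-477, E. coli) incubated 1 h at room temperature with biotinylated tetra-acetylated H4 (1-21) peptide and compound in HEPES pH 7.5 buffer with 2 mM DTT. AlphaScreen signal read 30 min after adding beads (7.5 μg/ml); IC50 from four-parameter fit after normalization to controls.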

`Cc1noc(C)c1-c1cnc2c(c1)c(-c1ccc(CC(=O)O)cc1F)cn2-c1ccc(F)cc1F` [P-0437] and `COc1ccc(CC(=O)O)cc1-c1cn(-c2ccc(F)cc2F)c2ncc(-c3c(C)noc3C)cc12` [P-0443, 2-(3-(1-(2,4-difluorophenyl)-5-(3,5-dimethylisoxazol-4-yl)-1H-pyrrolo[2,3-b]pyridin-3-yl)-4-methoxyphenyl)acetic acid] fall in the same range of IC50: 1 to 8 µM for the first, 1 to 8 µM for the second.

First: Cc1noc(C)c1-c1cnc2c(c1)c(-c1ccc(CC(=O)O)cc1)cn2-c1ccc(F)cc1F [P-0438, 2-(4-(1-(2,4-difluorophenyl)-5-(3,5-dimethylisoxazol-4-yl)-1H-pyrrolo[2,3-b]pyridin-3-yl)phenyl)acetic acid]
Second: Cc1noc(C)c1-c1cnc2c(c1)c(-c1cc(F)c(C(=O)O)cc1OC(F)(F)F)cn2-c1ccc(C2CC2)nc1 [P-0444, 4-(1-(6-cyclopropylpyridin-3-yl)-5-(3,5-dimethylisoxazol-4-yl)-1H-pyrrolo[2,3-b]pyridin-3-yl)-2-fluoro-5-(trifluoromethoxy)benzoic acid]
The IC50 of the first is higher: 8 to 1000 µM for the first, 1 to 8 µM for the second.

`Cc1noc(C)c1-c1cnc2c(c1)c(-c1c(Cl)cc(C(=O)O)cc1OC(F)(F)F)cn2-c1cccnn1` [P-0439, 3-chloro-4-(5-(3,5-dimethylisoxazol-4-yl)-1-(pyridazin-3-yl)-1H-pyrrolo[2,3-b]pyridin-3-yl)-5-(trifluoromethoxy)benzoic acid] and `Cc1noc(C)c1-c1cnc2c(c1)c(-c1c(Cl)cc(C(=O)O)cc1OC(F)(F)F)cn2-c1ccc(C2CC2)nc1` [P-0441, 3-chloro-4-(1-(6-cyclopropylpyridin-3-yl)-5-(3,5-dimethylisoxazol-4-yl)-1H-pyrrolo[2,3-b]pyridin-3-yl)-5-(trifluoromethoxy)benzoic acid] fall in the same range of IC50: 0.0001 to 1 µM for the first, 0.0001 to 1 µM for the second.

First: COC(=O)c1cc(Cl)c(-c2cn(-c3ccc(C4CC4)nc3)c3ncc(-c4c(C)noc4C)cc23)c(OC(F)(F)F)c1 [P-0440, methyl 3-chloro-4-(1-(6-cyclopropylpyridin-3-yl)-5-(3,5-dimethylisoxazol-4-yl)-1H-pyrrolo[2,3-b]pyridin-3-yl)-5-(trifluoromethoxy)benzoate]
Second: CCc1onc(C)c1-c1cnc2c(c1)c(-c1c(Cl)cc(C(=O)O)cc1OC(F)(F)F)cn2-c1ccc(C2CC2)nc1 [P-0448, 3-chloro-4-(1-(6-cyclopropylpyridin-3-yl)-5-(5-ethyl-3-methylisoxazol-4-yl)-1H-pyrrolo[2,3-b]pyridin-3-yl)-5-(trifluoromethoxy)benzoic acid]
The IC50 of the first is higher: 8 to 1000 µM for the first, 1 to 8 µM for the second.

`CCOc1cc(C(=O)O)c(F)cc1-c1cn(C2CCN(C(=O)OC(C)(C)C)CC2)c2ncc(-c3c(C)noc3C)cc12` [P-0442, 4-(1-(1-(tert-butoxycarbonyl)piperidin-4-yl)-5-(3,5-dimethylisoxazol-4-yl)-1H-pyrrolo[2,3-b]pyridin-3-yl)-5-ethoxy-2-fluorobenzoic acid] and `CCOc1cc(C(=O)O)c(F)cc1-c1cn(C2CCN(C(=O)C(C)(C)C)CC2)c2ncc(-c3c(C)noc3C)cc12` [P-0445, 4-(5-(3,5-dimethylisoxazol-4-yl)-1-(1-pivaloylpiperidin-4-yl)-1H-pyrrolo[2,3-b]pyridin-3-yl)-5-ethoxy-2-fluorobenzoic acid] fall in the same range of IC50: 8 to 1000 µM for the first, 8 to 1000 µM for the second.

`CCOc1cc(C(=O)O)c(F)cc1-c1cn(C2CCN(CCC#N)CC2)c2ncc(-c3c(C)noc3C)cc12` [P-0446, 4-(1-(1-(2-cyanoethyl)piperidin-4-yl)-5-(3,5-dimethylisoxazol-4-yl)-1H-pyrrolo[2,3-b]pyridin-3-yl)-5-ethoxy-2-fluorobenzoic acid] and `CCOc1cc(C(=O)O)c(F)cc1-c1cn(C2CCN(C(=O)CO)CC2)c2ncc(-c3c(C)noc3C)cc12` [P-0447, 4-(5-(3,5-dimethylisoxazol-4-yl)-1-(1-(2-hydroxyacetyl)piperidin-4-yl)-1H-pyrrolo[2,3-b]pyridin-3-yl)-5-ethoxy-2-fluorobenzoic acid] fall in the same range of IC50: 8 to 1000 µM for the first, 8 to 1000 µM for the second.

In the case of `Cc1nnn(C)c1-c1cnc2c(c1)c(-c1cccc(C(=O)O)c1)cn2[C@@H](C)c1ccccn1` [P-0449, (S)-3-(5-(1,4-dimethyl-1H-1,2,3-triazol-5-yl)-1-(1-(pyridin-2-yl)ethyl)-1H-pyrrolo[2,3-b]pyridin-3-yl)benzoic acid], the IC50 is reported as 1 to 8 µM.
